Holding throughout (format): in vivo
The subject of assay [1] is Diamondback Moth (Plutella xylostella, PLUTMA). The assay is described as follows: Bioassay 9: Diamondback Moth, leaves of track-sprayed cabbage plants, mortality and feeding damage scored. To be noted: Feeding damage control; AI alone 40 (10^-5) Wt %.
Assay [2] shares this test system. The assay is described as above. To be noted: AI alone 20 (10^-5) Wt %. On the procedure: (§1) where X=No. of live nymphs on solvent check plants and Y=No. of live nymphs on treated plants. In Table B2 the “Expected % Control” was calculated using the method described in Colby S. R., Weeds, 1967, 15, 20-22. Bioassay 9: Diamondback Moth (Plutella xylostella, PLUTMA) (DBM).
(§2) Stock solutions were prepared with Formula One as well as for each of the active ingredients individually. Test solutions were prepared from the stock solutions. Test solutions were prepared containing Formula One, the individual active ingredients, and mixtures of Formula One with each of the active ingredients. The test solution for Formula One was prepared by adding 500 μL of the stock solution to a 25 mL glass vial, then adding 500 μL of a 9:1 mixture of acetone: water. The individual active ingredients were prepared by adding 500 μL of stock solution to a 25 mL glass vial, then adding 500 μL of a 9:1 mixture of acetone: water. The test solutions containing mixtures of Formula One and the individual active ingredients were prepared by adding 500 μL of the active ingredient stock solution to a 25 mL glass vial, followed by 500 μL of the Formula One stock solution, creating a test solution containing 4000 ppm Formula One and 0.4% (w/v) of the active ingredient. Each test solution was serially diluted to create desired doses of test solutions (0.4% (w/v), 0.04% (w/v), 0.004% (w/v), 0.0004% (w/v), 0.00004% (w/v), and 0.000004% (w/v)). In test solutions containing mixtures of Formula One and the active ingredients, the active ingredients were diluted as described above, but the Concentration of Formula One was held constant (0.4% (w/v)). The highest dose test solution (0.4% (w/v)) was discarded, leaving 5 test solution concentrations used in the test.
Cabbage seedlings, grown in 3-inch pots with 2-3 small (3-5 centimeter (cm)) true leaves, were used as test substrate. Cabbage plants were sprayed with desired concentrations of Formula One and active ingredients or their mixtures using a track Sprayer. Reference plants (solvent check) were sprayed with diluent only (0.025% Tween® 20 and 10% acetone:methanol (1:1) in water). The sprayed cabbage plants were allowed to dry for 1 hour, after which leaves from each treatment were placed in a cell of a plastic tray. One leaf per cell and 8 replicates for each cell. The tested doses ranged between 0.000001% (w/v) to 0.0002% (w/v). One 2nd instar DBM larvae were placed in each cell of the tray and allowed to feed on the cabbage foliage for […] after which the mortality and feeding damage were scored. Test trays were held at approximately 26° C. and ambient relative humidity (RH) prior to grading. The number of live larvae were recorded from each cell and percent control was measured using Abbott's correction formula (W. S. Abbott, J. Econ. Entomol. 18 (1925), pp. 265-267) as follows:
where X=No. of live larvae on solvent check and Y=No. of live larvae on treated diet. In Table B6 the “Expected % Control” was calculated using the method described in Colby S. R., Weeds, 1967, 15, 20-22.

For assay [3], the system named is Sweet Potato Whitefly (Bemisia tabaci, BEMITA). As to the kind of experiment: Bioassay 8: Sweet Potato Whitefly, spray on cotton seedlings at crawler emergence, nymphs counted 7-9 days after treatment. Here is the method:
(§3) where X=No. of live aphids on solvent check plants and Y=No. of live aphids on treated plants. In Table B1 the “Expected % Control” was calculated using the method described in Colby S. R., Weeds, 1967, 15, 20-22. Bioassay 8: Sweet Potato Whitefly (Bemisia tabaci, BEMITA) (“SPW”).
Stock solutions were prepared with Formula One as well as for each of the active ingredients individually. Test solutions were prepared from the stock solutions. Test solutions were prepared containing Formula One, the individual active ingredients, and mixtures of Formula One with each of the active ingredients. The test solutions for Formula One and the individual active ingredients were prepared by adding 500 μL of stock solution to a 25 mL glass vial, then adding 500 μL of acetone, followed by the addition of 9 mL water with 0.025% Tween®) 20 to create a 0.001% (w/v) solution. The test solutions containing mixtures of Formula One and the individual active ingredients were prepared by adding 500 μL of the active ingredient stock solution to a 25 mL glass vial, followed by 500 μL of the Formula One stock solution, then by the addition of 9 mL water with 0.025% Tween®) 20 to create a test solution containing 0.001% (w/v) Formula One and 0.001% (w/v) of the active ingredient. Each test solution was serially diluted to create desired doses of test solutions (0.001% (w/v), 0.0001% (w/v), 0.00001% (w/v), 0.000001% (w/v), 0.0000001% (w/v), […] and 0.00000001% (w/v)).
The test solutions were tested against SPW using the following procedure: Cotton seedlings grown in 3-inch pots, pruned so that only one true leaf remained, were used as test substrate. Adult B. tabaci were allowed to colonize the cotton plants and lay eggs for 24 hours after which all adults were removed from the plants using compressed air. Plants were monitored for egg development and, when crawler emergence was underway (>25% emergence based on visual examination using a microscope), the plants were sprayed using the test solutions and methods described above for green peach aphids (GPA). Treated plants were held in a holding room at approximately 25° C. and ambient relative humidity (RH) prior to grading. Evaluation was conducted by counting the number of developed 2-3 instar nymphs per plant under a microscope 7-9 days after treatment. Percent control was measured using Abbott's correction formula (W. S. Abbott, J. Econ. Entomol. 18 (1925), pp. 265-267) as follows:
as §1

Assay [4] has as its system Cotton Aphid (Aphis gossypii, APHIGO). As to the kind of experiment: Bioassay 7: Cotton Aphid, foliar spray on infested cotton seedlings, live aphids counted three days after treatment. On the procedure:
where X=No. of live larvae on solvent check and Y=No. of live larvae on treated diet. In Table B6 the “Expected % Control” was calculated using the method described in Colby S. R., Weeds, 1967, 15, 20-22. Bioassay 7: Cotton Aphid (Aphis gossypii, APHIGO) (“CA”).
Stock solutions of Formula One and one or more of the active ingredients were prepared at concentrations of 1 mg/mL using a 1:1 mixture of acetone: methanol as a diluent. The stock solutions were prepared with Formula One as well as for each of the active ingredients individually. Test solutions were prepared from the stock solutions. Test solutions were prepared containing Formula One, the individual active ingredients, and mixtures of Formula One with each of the active ingredients. The test solutions for Formula One and the individual active ingredients were prepared by adding 1.5 mL of stock solution to a 30 mL glass vial, then adding 1.5 mL of 1:1 acetone: methanol solvent, followed by the addition of 27 mL water with 0.025% Tween® 20 to create a […]. Each test solution was serially diluted to create desired doses of test solutions ranging from 0.000001 to 0.0025% (w/v). The test solutions were tested against CA using the following procedure: cotton seedlings were grown in 3-inch pots with one true leaf (2-5 cm in diameter) were used as test substrate. The seedlings were infested with 20-50 CA (wingless adult and nymph stages) one day prior to chemical application. Four pots with individual seedlings were used for each treatment. A hand-held aspirator-type sprayer was used for spraying a solution to both sides of […] leaves until runoff. Reference plants (solvent check) were sprayed with the diluent only (0.025% Tween® 20 and 10% acetone:methanol (1:1) in water). Treated plants were held in a holding room for three days at approximately 25° C. and ambient relative humidity (RH about 20% to about 45%) prior to grading. Evaluation was conducted by counting the number of live aphids per plant under a microscope three days after treatment. Percent control was measured using Abbott's correction formula (W. S. Abbott, J. Econ. Entomol. 18 (1925), pp. 265-267) as follows:
as §3

Assay [5] deals with Sweet Potato Whitefly (Bemisia tabaci, BEMITA). The assay is described as follows: Bioassay 2: Sweet Potato Whitefly, spray on cotton seedlings at crawler emergence, nymphs counted 7-9 days after treatment. To be noted: AI alone 0.1 (10-5) % w/v. The method in brief:
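Cotton seedlings pruned to one true leaf were colonized by adult B. tabaci for 24 h egg-laying, then sprayed once >25% crawler emergence was underway; solutions 0.001% to 0.00000001% (w/v) in acetone/water with 0.025% Tween 20. Held ~25° C; live 2-3 instar nymphs counted 7-9 days later, Abbott-corrected % control.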

Assay [6] relates to Western Flower Thrips (Frankliniella occidentalis, FRANOC). As to the kind of experiment: Bioassay 3: Western Flower Thrips, cotton leaf disc dip, live WFT counted 3 days after treatment. To be noted: Frankliniella occidentalis, foliar, 72 h; AI alone 0.0003125 % w/v. Here is the method: Stock solutions of Formula One and various active ingredients were prepared initially at a concentration of 8 mg/ml for Formula One and 1 mg/mL for the active ingredients, respectively, using acetone as a diluent. Stock solutions were prepared with Formula One as well as for each of the active ingredients individually. Test solutions were prepared from the stock solutions. Test solutions were prepared containing Formula One, the individual active ingredients, and mixtures of Formula One with each of the active ingredients. The test solution for Formula One was prepared by adding 500 μL of the stock solution to a 25 mL glass vial, then adding 500 μL of acetone, followed by the addition of 9 mL water with 0.025% Tween®) 20 to create a 0.04% (w/v) solution. The test solutions of the individual active ingredients were prepared by adding 500 μL of stock solution to a 25 mL glass vial, then adding 500 μL of acetone, followed by the addition of 9 mL water with 0.025% Tween®) 20 to create a 0.005% (w/v) solution. The test solutions containing mixtures of Formula One and the individual active ingredients were prepared by adding 500 μL of the active ingredient stock solution to a 25 mL glass vial, followed by 500 μL of the Formula One stock solution, then by the addition of 9 mL water with 0.025% Tween®) 20 to create a test solution containing 0.04% (w/v) Formula One and 0.005% (w/v) of the active ingredient. Each test solution was serially diluted to create desired doses of test solutions (0.005% (w/v), 0.00125% (w/v), 0.0003125% (w/v), 0.000078% (w/v), and 0.0000195% (w/v)). In test solutions containing mixtures of Formula One and the active ingredients, the active ingredients were diluted as described above, but the Concentration of Formula One was held constant (0.04% (w/v)).
The test solutions were tested against WFT using the following procedure: Leaf discs (2.7 cm in diameter) were cut from the true leaves of cotton plants. Leaf discs were dipped into the test solutions and shaken to ensure complete coverage of the leaf disc and then placed in Millipore®) PetriSlides containing a filter paper disc. Treated leaf discs were air dried for approximately 1 hour. Each leaf disc was infested with 5 WFT (9-10-day old nymphs) by placement on each leaf disc, and the PetriSlides were capped to prevent escape. Each treatment was replicated three times and the test treatments were held at approximately 26° C. and ambient relative humidity (RH) prior to grading. Reference discs (solvent check) were treated with the diluent only. Evaluation was conducted by counting the number of live WFT under magnification 3 days after treatment. Percent control was measured using Abbott's correction formula (W. S. Abbott, J. Econ. Entomol. 18 (1925), pp. 265-267) as follows:
where X=No. of live nymphs on solvent check leaf discs and Y=No. of live nymphs on treated leaf discs. In Table B3 the “Expected % Control” was calculated using the method described in Colby S. R., Weeds, 1967, 15, 20-22. Bioassay 4: Western Tarnished Plant Bug (Lygus hesperus, LYGUHE) (“WTPB”).

In assay [7] the test system is Diamondback Moth (Plutella xylostella, PLUTMA). As to the kind of experiment: Bioassay 6: Diamondback Moth, artificial lepidopteran diet, live larvae after 5 days. As to conditions: DBM; AI alone 0.04 % w/v. On the procedure: where X=No. of live nymphs on solvent check and Y=No. of live nymphs on treated bean segments. In Table B5 the “Expected % Control” was calculated using the method described in Colby S. R., Weeds, 1967, 15, 20-22. Bioassay 6: Beet Armyworm (Spodoptera exigua, LAPHEG) (BAW), and Diamondback Moth (Plutella xylostella, PLUTMA) (DBM).
as §2
The test solutions were tested against BAW and DBM using the following procedure: An artificial lepidopteran diet (Multispecies Lepidopteran Diet, Southland Products) was distributed in 128-cell bioassay trays (Frontier Agricultural Sciences™). 50 μL of test solution was pipetted into a cell in the bioassay tray. (The test solution doses of 0.04% (w/v), 0.004% (w/v), 0.0004% (w/v), 0.00004% (w/v), and 0.000004% (w/v) translated to concentrations of 5, 0.5, 0.05, 0.005, and 0.0005 ug/cm^2 on the diet, respectively.) A reference treatment (solvent check) was treated with the diluent only. […] After 5 days, the number of live larvae were recorded from each cell and percent control was measured using Abbott's correction formula (W. S. Abbott, J. Econ. Entomol. 18 (1925), pp. 265-267) as follows:
where X=No. of live larvae on solvent check and Y=No. of live larvae on treated diet. In Table B6 the “Expected % Control” was calculated using the method described in Colby S. R., Weeds, 1967, 15, 20-22. […]

As to Spidoximat, the entries for the “Average % Control AI” value in assay [1], in assay [2] (Acute mortality) and in assay [2] (Feeding damage control) were 37.98%, 0.00% and 17.83%, respectively. Moreover, the “Average % Control A1” value in assay [3] (AI alone 0.1 (10^-5) Wt %) came out at 37.90%; in assay [3] (AI alone 0.8 (10^-5) Wt %), 62.26%; in assay [4] (AI alone 0.2 (10^-5) Wt %), 13.25%; in assay [4] (AI alone 7 (10^-5) Wt %), 32.54%; in assay [4] (AI alone 12 (10^-5) Wt %), 35.09%.
The term pest or weed control denotes the degree to which the test organism was suppressed or injured, in per cent. High values mean a strong effect, low ones a weak effect. As for `CNC(=O)O/N=C(\SC)C(=O)N(C)C` [Oxamyl], the “Average % Control AI” value in assay [5] and in assay [7] was 0% in each case. Further, the pest or weed control at 0.0003125 % strength in assay [6] amounted to 0%.

The values above are taken from US20250338846A1, “COMPOSITIONS HAVING PESTICIDAL UTILITY AND PROCESSES RELATED THERETO” (CORTEVA AGRISCIENCE, LLC, priority 2022, published 2025).
